The record followed here is EP4592274A1, “RADIOLABELED TYROSINE DERIVATIVE AND APPLICATION THEREOF” (OSAKA UNIVERSITY, priority 2022, dated 2024).

Series [1] can be described thus: Thin-layer chromatography (TLC) analysis of decomposition after production. In kind it is physicochemical. The conditions noted are these: 24 hours after purification; in sodium ascorbate aqueous solution (final concentration 1%). As for the experimental part: The crude product solution (1 µL) was analyzed by thin-layer chromatography (TLC). The sample was spotted on a thin-layer plate (silica gel 60F254), and a mixed solvent of acetonitrile/water (2/1) was used as a developing solvent. The thin-layer plate was exposed to an imaging plate (BAS IP MS 2025E, GE Healthcare) for about 15 min, and then analyzed by a bioimage analyzer (Tyhoon™ FLA-7000, Cytiva). The results are shown in Fig.2. ^211At-AAMT-OMe in the crude product solution was detected at Rf 0.80, and the radiochemical yield (RCY) was 81.3%.
Before purification, immediately after production, 3 hours after production, and 24 hours after production, ^211At-AAMT-OMe was analyzed by thin-layer chromatography (TLC) in the same manner as described above.
24 hours after production, (R)-^211At-AAMT-OMe was analyzed by thin-layer chromatography (TLC) in the same manner as described above.
24 hours after production, ^211At-AAMT-OEt was analyzed by thin-layer chromatography (TLC) in the same manner as described above.
24 hours after production, ^211At-AAMT-OPr was analyzed by thin-layer chromatography (TLC) in the same manner as described above.
24 hours after production, ^211At-AAMPhe-OMe was analyzed by thin-layer chromatography (TLC) in the same manner as described above.

Series [2] relates to CDDP-resistant A549 (A549 CDDP-r). As to the kind of experiment: Cytotoxicity test on CDDP-resistant A549 (Test Example 8). The conditions noted are these: cultivation for 48 hours. As for the experimental part: Two days before experiment, A549 and CDDP-resistant A549 (A549 CDDP-r) were each seeded in a 96-well plate at a concentration of 1 × 10^5 cells/mL. ^211At-AAMT-OMe or ^211At-AAMT adjusted to a predetermined concentration was added to A549 cells and CDDP-resistant A549 cells, respectively, and the cells were cultured (CO2 5%, 37°C). After the cultivation for 48 hours, Cell counting kit-8 (DOJINDO LABORATORIES) was added. After the addition, the cells were cultured at 37°C for 1 hour, and cell viability was measured using absorbance at 450 nm as an indicator.

Another series has as its system A549. As to the kind of experiment: Therapeutic test on mice subcutaneously transplanted with A549 (Test Example 9). In kind it is in vivo. The conditions noted are these: A549, 30 days after administration, 0.5 MBq per mouse; compared with 211At-AAMT.

Regarding `COc1ccc(C[C@](C)(N)C(=O)O)cc1[211At]` [^211At-AAMT-OMe, (S)-3-astato(^211At)-O-methyl-α-methyltyrosine], the “decomposition (TLC)” value in series [1] is listed as “no decomposition”. Moreover, the “cytotoxicity (cell viability, Cell counting kit-8)” value in series [2] was “more remarkable cytotoxicity”. Moreover, the “anti-tumor effect (tumor weight)” value in the series with A549 is given as “comparable”.
